The values that follow come from patent US20230288433A1, “DETECTION OF PHOSPHOINOSITIDES IN BLOOD CELLS AS A BIOMARKER FOR ALPHA SYNUCLEIN ASSOCIATED PATHOLOGIES AND A METHOD OF TREATMENT OF PARKINSON'S DISEASE AND THE RELATED NEURODEGENERATIONS” (YISSUM RESEARCH DEVELOPMENT COMPANY OF THE HEBREW …, priority 2021, published 2023).

The subject of assay [1] is Numb-associated kinases (NAKs). Kind of assay: pAP2 (phospho-Thr156 μ2 subunit of AP2) signal by ICC in SK-Mel2 cells. It is filed as cell-based. The conditions noted are these: 10 μM for 3 hours. The method, then:
FIGS. 12A-12H include fluorescent micrographs and graphs showing that α-Syn colocalizes with phosphorylated AP2 and PIP2 on clathrin-coated pits. (12A) SK-Mel2 cells were processed for the detection of the immunoreactive signals of endogenous α-Syn (ab 21976 ab, red), phosphorylated Thr156 μ2 subunit of AP2 (pAP2; gray) and PI4,5P2 (green) by immunocytochemistry (ICC). Bar=10 μm. (12B) SK-Mel2 cells treated with LP-935509 (10 μM, for 3 hours), to inhibit the phosphorylation of the μ2 subunit of AP2 and processed for ICC as in (12A). Bar=[…]. (12C) SK-Mel2 cells infected with lentivirus encoding shSNCA to silence α-Syn expression. Cells were treated with LP-935509 inhibitor as in (12B) and processed for ICC. Bar=[…]. (12D) SK-Mel2 cells as in (12A), however, immunoreacted for PI3,4P2 detection (green). Bar=[…]. […] Cells analyzed by FACS to immunodetect PI4,5P2 levels. […] (12G) Cells analyzed by FACS as in (12F) to detect PI3,4P2 signal. […] Colocalization of the signal obtained for α-Syn with the specified PIP was quantified and normalized to total α-Syn positive spots. […]
Phosphorylation at Thr156 of μ2 subunit of the clathrin adaptor AP2 starts following its binding to PI4,5P2 at the initiation of a CCP and throughout vesicle lifetime. The inventors analyzed SK-Mel2 cells, which express detectable levels of endogenous α-Syn protein. […]

Assay [2] concerns PI3K/AKT pathway. The assay is described as follows: Treatments in disease models with inhibitors of the PI3K/AKT pathway. The source says: The PI3K/AKT pathway is activated in brains affected with PD and models thereof. Activated PI3K/AKT is exemplified by increases in PI3-Ps, including PI3,4,5P3 and PI3,4P2 that are required for the phosphorylation and activation of AKT phosphorylation at Thr308 and Ser 473. α-Syn is involved in activation of PI3K/AKT pathway. PI3K/AKT activation by α-Syn involves protein palmitoylation. […] Inhibitors of the PI3K/AKT pathway are useful to inhibit α-Syn′ toxicity. These may include Alpelisib and additional inhibitors of PI3K class I that act peripherally not crossing the blood brain barrier (BBB); or GDC-0084 and similar agents that can cross the BBB and act at the central nervous system. Or inhibitors of class II PI3K, for example, HY-151491, HY-151492 or HY-151490.α-Syn enhances PI3K activity by enhancing protein palmitoylation, including Ras palmitoylation that regulates PI3K activity. Class I and class II PI3Ks enzymes harbor a Ras binding domain and thus are affected by α-Syn. Class I and class II PI3Ks enzymes are activated by α-Syn and are targets for PD therapy. Inhibitors for class I and class II PI3Ks may be used for drug repurposing

Assay [3] has as its system APT1/APT2 depalmitoylases. Kind of assay: PIP3/PIP2 ratio by FACS in α-Syn expressing HepG2 cells with depalmitoylase inhibitors. It is filed as cell-based. As to conditions: serum starved 4 hours, 10 μM each. The protocol: ML348 and ML349, inhibit the depalmitoylating enzymes Acyl protein thioesterase 1 and 2 (APT-1, APT-2, respectively). HepG2 cells were infected to express a mock vector (EV) or α-Syn. 5 days post infection, cells were serum starved for 4 hours in the presence of the indicated inhibitors: 2-Bromo-Palmitate (2BP 50 μM, an inhibitor of palmitoylation), ML348 and ML349 (10 μM each). PIP levels determined by FACS as in FIG. 4. The ratio of PI3,4,5P3 (PIP3) to PI4,5P2 (PIP2) is presented. A representative experiment out of n=2 highly similar experiments. Mean±SE of the replicates within one experiment, n>2,000 gated cells.
For orientation: In flow cytometry, cells or beads pass a laser one at a time.

Assay [4] relates to PI3K/AKT pathway. The assay is described as follows: PIP3/PIP2 ratio (FACS) and PSer473/total AKT (Western blot) in HepG2 cells expressing α-Syn. The assay is classed as cell-based. As to conditions: inhibitor 100 nM for 2 hours, combined with CRISPR/CAS for PI3KCA or PI3KCB. The method, then:
FIGS. 25A-25D include vertical bar graphs showing that silencing either PI3KCA or PI3KCB interfere with α-Syn-mediated AKT activation. (25A) HepG2 cells were co-infected with an empty vector (EV) or α-Syn expressing vector together with a CRISPR/CAS vector to silence either PI3KCA (CA, p110α) or PI3KCB (CB, p110β), or a control vector (CT). 72 hours post infection, cells were processed for the detection of PIPs by FACS or analyzed by Western blotting for the detection of AKT. […] (25B) The effect of PIK75 (100 nM, PI3KCA inhibitor) or TGX 221 (100 nM, PIKCB inhibitor) on PIP3/PIP2 ratio (left) or PSer473/total AKT ratio (right) as a function of α-Syn expression. Inhibitors were added for 2 hours before cells were lysed. […] Results are mean±SD of n=3-4 trials.

For assay [5], the system named is HEK 293T cells. The assay is described as follows: PI4,5P2 levels by ICC after rapamycin-induced recruitment of the Inp45p phosphatase to the plasma membrane. The assay is classed as cell-based. As to conditions: HEK 293T expressing Lyn-FRB and FKBP-CFP-Inp54p, rapamycin 500 nM; DMSO treated cells set at 100%. The method, then:
(§1) FIGS. 15A-15E include fluorescent micrographs, a micrograph, and graphs showing that the enhancing effect of α-Syn on CME is PI4,5P2 dependent. (15A) HEK 293T cells, transfected to co-express the three plasmids: Lyn-FRB, FKBP-CFP-Inp54p and WT α-Syn. On day of experiment, cells were serum starved for 90 minutes and then incubated for 7 minutes with 568-Tf and rapamycin (500 nM) to induce the recruitment of the Inp45p phosphatase (P-ase) to the plasma membrane along with internalization of 568-Tf. Control cells were treated in parallel with DMSO (0.5% v/v). Cells were then acid-washed, fixed and immunoreacted with anti α-Syn ab (MJFR1; Green). Direct fluorescence for CFP (P-ase; Grey) and 568-Tf (Red). (15B) HEK 293T cells expressing Lyn-FRB and FKBP-CFP-Inp54p were treated either with rapamycin or DMSO as described in (15A), followed by immunoreaction with anti PI4,5P2 ab (Echelon). A quantification of PI4,5P2 signal is shown (n>9 cells per treatment; mean±SE; * P<0.01 t-test). (15C) Graph showing quantification of internalized 568-Tf signal in cells transfected and treated as in (15A). Cells transfected with a mock vector (white bars, squares) or α-Syn (black bars, circles). […] Protein samples were analyzed by a western blot, immunoreacted with anti-Nir2 ab (Abcam). […] Sister cultures were immunoreacted with anti PI4,5P2 ab and analyzed by FACS. […]

The test system of assay [6] is HEK 293T cells. Kind of assay: 568-Tf (transferrin) endocytosis with the rapamycin-inducible phosphatase. The assay is classed as cell-based. As to conditions: control cultures without Inp45p expression. The method, then:
as §1

Each structure is given as a SMILES string.

Experimental for muscarinic receptors: To confirm the specificity of the PI4,5P2 signal that the inventors detected using anti PI4,5P2 Ab in cortical neurons, PI4,5P2 signal depletion following phospholipase C (PLC) activation was determined. […] Control cells were conditioned and treated in parallel but without the drug. Cells were fixed and immunoreacted with anti PI4,5P2 ab (FIG. 10A).

With `COc1ncccc1-c1cnn2ccc(N3CCN(C(=O)OC(C)C)CC3)nc12` [LP-935509], in assay [1], the “colocalization of α-Syn and pAP2” value is listed as “no obvious colocalization”; the pAP2 signal entry was “dramatically reduced”.
Turning to `NC1(c2ccc(-c3nc4ccn5c(=O)[nH]nc5c4cc3-c3ccccc3)cc2)CCC1` [MK2206], the “aberrant activation of the PI3K/AKT pathway by α-Syn” value in the assay on PI3K/AKT pathway [2] is “reduce the aberrant activation of this pathway by α-Syn”.
For `O=C(CN1CCN(C(=O)c2ccco2)CC1)Nc1cc(C(F)(F)F)ccc1Cl` [ML348], the “effects of α-Syn to enhance PIP3 levels (PIP3 to PIP2 ratio)” value in assay [3] is “interfere with the effects of α-Syn to enhance PIP3 levels”.
Take `COc1ccc(N2CCN(C(=O)c3cc4c(s3)-c3ccccc3S(=O)(=O)C4)CC2)cc1` [ML349]: the “effects of α-Syn to enhance PIP3 levels (PIP3 to PIP2 ratio)” value in assay [3] is “interfere with the effects of α-Syn to enhance PIP3 levels”.
As for `Cc1ccc([N+](=O)[O-])cc1S(=O)(=O)N(C)/N=C/c1cnc2ccc(Br)cn12` [PIK75], the “aberrant activation of the PI3K/AKT pathway by α-Syn” value in the assay with PI3K/AKT pathway [2] is recorded as “reduce the aberrant activation of this pathway by α-Syn”. Also, the “α-Syn-mediated increases in PI3K/AKT pathway activation (PIP3/PIP2 ratio, PSer473/total AKT)” value in the assay with PI3K/AKT pathway [4] is recorded as “inhibition of α-Syn-mediated increases in PI3K/AKT pathway activation”.
Consider `Cc1cc(C(C)Nc2ccccc2)c2nc(N3CCOCC3)cc(=O)n2c1` (stereo not drawn) [TGX 221], for which the “aberrant activation of the PI3K/AKT pathway by α-Syn” value with PI3K/AKT pathway [2] was “reduce the aberrant activation of this pathway by α-Syn”. The “α-Syn-mediated increases in PI3K/AKT pathway activation (PIP3/PIP2 ratio, PSer473/total AKT)” value in the assay with PI3K/AKT pathway [4] is given as “inhibition of α-Syn-mediated increases in PI3K/AKT pathway activation”.
With `CC[C@@H]1C(=O)OC[C@@H]1Cc1cncn1C` [pilocarpine], in the assay on muscarinic receptors, the “PI4,5P2 signal following PLC activation” value is on record as “loss of PI4,5P2 signal”.
As to `CO[C@H]1C[C@@H]2CC[C@@H](C)[C@@](O)(O2)C(=O)C(=O)N2CCCC[C@H]2C(=O)O[C@H]([C@H](C)C[C@@H]2CC[C@@H](O)[C@H](OC)C2)CC(=O)[C@H](C)/C=C(\C)[C@@H](O)[C@@H](OC)C(=O)[C@H](C)C[C@H](C)/C=C/C=C/C=C/1C` [rapamycin], the “PI4,5P2 levels” value in the assay with HEK 293T cells [5] is 26%. The “α-Syn-induced CME (568-Tf internalization)” value in the assay with HEK 293T cells [6] was “no effect”.
